What was measured:
Format in all cases: functional
[1] = system: ACHN; assay: Growth inhibition of human ACHN cells
[2] = system: NCI/ADR-RES; assay: Growth inhibition of human NCI/ADR-RES cells
[3] = system: UO-31; assay: Growth inhibition of human UO31 cells
[4] = system: SF-268; assay: Growth inhibition of human SF268 cells
[5] = system: SR; assay: Growth inhibition of human SR cells
[6] = system: HT-29; assay: Growth inhibition of human HT-29 cells
[7] = system: PC-3; assay: Growth inhibition of human PC3 cells
[8] = system: HCT-116; assay: Growth inhibition of human HCT116 cells
[9] = system: HCT-15; assay: Growth inhibition of human HCT15 cells
[10] = Growth inhibition of human […] cells
[11] = system: U-251; assay: Growth inhibition of human U251 cells
[12] = system: HL-60(TB); assay: Growth inhibition of human HL-60(TB) cells
[13] = system: NCI-H460; assay: Growth inhibition of human NCI-H460 cells
[14] = system: CCRF-CEM; assay: Growth inhibition of human CCRF-CEM cells
[15] = system: OVCAR-5; assay: Growth inhibition of human OVCAR5 cells
[16] = system: HCC 2998; assay: Growth inhibition of human HCC2998 cells
[17] = system: UACC-62; assay: Growth inhibition of human UACC62 cells
[18] = system: RXF 393; assay: Growth inhibition of human RXF393 cells
[19] = system: BT-549; assay: Growth inhibition of human BT549 cells
[20] = system: EKVX; assay: Growth inhibition of human EKVX cells
[21] = read-out: LC50 (the source's name)

Compound: CCCCCCCCCCCCCCCCNC(=O)[C@@H]1CSC(c2ccc(NC(C)=O)cc2)N1 (mixture of isomers)
- TGI [1]: 0.47 µM
- CC50 [1, 21]: 1.1 µM
- GI50 [2]: 0.25 µM
- TGI [2]: 0.52 µM
- CC50 [2, 21]: 0.17 µM
- GI50 [3]: 0.19 µM
- TGI [3]: 0.34 µM
- CC50 [3, 21]: 6.1 µM
- GI50 [4]: 0.16 µM
- TGI [4]: 0.31 µM
- CC50 [4, 21]: 0.6 µM
- GI50 [5]: 0.16 µM
- TGI [5]: 0.35 µM
- CC50 [5, 21]: 0.81 µM
- GI50 [6]: 0.23 µM
- TGI [6]: 0.48 µM
- CC50 [6, 21]: 1.09 µM
- GI50 [7]: 0.17 µM
- TGI [7]: 0.34 µM
- CC50 [7, 21]: 0.64 µM
- GI50 [8]: 0.18 µM
- TGI [8]: 0.33 µM
- CC50 [8, 21]: 0.6 µM
- GI50 [9]: 1 µM
- TGI [9]: 3.22 µM
- CC50 [9, 21]: 11.9 µM
- GI50 [10]: 0.22 µM
- TGI [10]: 0.56 µM
- CC50 [10, 21]: > 100 µM
- GI50 [11]: 0.18 µM
- TGI [11]: 0.33 µM
- CC50 [11, 21]: 0.62 µM
- GI50 [12]: 0.17 µM
- TGI [12]: 0.37 µM
- CC50 [12, 21]: 0.79 µM
- GI50 [13]: 0.19 µM
- TGI [13]: 0.39 µM
- CC50 [13, 21]: 0.79 µM
- GI50 [14]: 0.12 µM
- TGI [14]: 0.4 µM
- CC50 [14, 21]: 13 µM
- GI50 [15]: 0.2 µM
- TGI [15]: 0.37 µM
- CC50 [15, 21]: 0.67 µM
- GI50 [16]: 0.44 µM
- TGI [16]: 1.81 µM
- CC50 [16, 21]: 4.58 µM
- GI50 [17]: 1.08 µM
- TGI [17]: 2.33 µM
- CC50 [17, 21]: 50.2 µM
- GI50 [18]: 0.2 µM
- TGI [18]: 0.35 µM
- CC50 [18, 21]: 0.62 µM
- GI50 [19]: 0.18 µM
- TGI [19]: 0.33 µM
- CC50 [19, 21]: 0.63 µM
- GI50 [20]: 0.3 µM
- TGI [20]: 0.88 µM
- CC50 [20, 21]: 4.11 µM

From ChEMBL document CHEMBL1159121, “Synthesis, in vitro structure-activity relationship, and in vivo studies of 2-arylthiazolidine-4-carboxylic acid amides as anticancer agents” (Bioorg Med Chem, 2010)
